# Legend:
# [1] = tested on: Staphylococcus sp.; assay: In vitro antibacterial activity of compound against Staphylococci bacteria.; type: functional
# [2] = tested on: Enterococcus sp.; assay: In vitro antibacterial activity of compound against Enterococci bacteria.; type: functional
MIC [1],MIC [2],Structure (SMILES)
1 µg/mL,0.5 µg/mL,COC[C@H]1O[C@@H](O[C@@H]2OC[C@@H]3O[C@@]4(OC[C@@H](OC(=O)c5c(C)cc(O)cc5O)[C@@H]5OCO[C@H]54)O[C@H]3[C@H]2OCCO)[C@@H](OC)[C@@H](O)[C@@H]1O[C@@H]1O[C@H](C)[C@H](OC)[C@H](O[C@@H]2O[C@H](C)[C@H]3O[C@]4(C[C@@H](O)[C@H](O[C@H]5C[C@@H](O[C@H]6C[C@](C)([N+](=O)[O-])[C@@H](OC)[C@H](C)O6)[C@H](OC(=O)c6c(C)c(Cl)c(O)c(Cl)c6OC)[C@@H](C)O5)[C@@H](C)O4)O[C@]3(C)[C@@H]2O)[C@@]1(C)O
4 µg/mL,4 µg/mL,C=CCOc1c(Cl)c(C)c(C(=O)O[C@@H]2[C@@H](C)O[C@@H](O[C@H]3[C@H](O)C[C@]4(O[C@@H]5[C@@H](C)O[C@@H](O[C@H]6[C@@H](OC)[C@@H](C)O[C@@H](O[C@H]7[C@H](O)[C@H](OC)[C@H](O[C@@H]8OC[C@@H]9O[C@@]%10(OC[C@@H](OC(=O)c%11c(C)cc(O)cc%11O)[C@@H]%11OCO[C@H]%11%10)O[C@H]9[C@H]8O)O[C@@H]7COC)[C@]6(C)O)[C@@H](O)[C@@]5(C)O4)O[C@@H]3C)C[C@H]2O[C@H]2C[C@](C)([N+](=O)[O-])[C@@H](OC)[C@H](C)O2)c(OC)c1Cl
2 µg/mL,4 µg/mL,COC[C@H]1O[C@@H](O[C@@H]2OC[C@@H]3O[C@@]4(OC[C@@H](OC(=O)c5c(C)cc(O)cc5O)[C@@H]5OCO[C@H]54)O[C@H]3[C@H]2O)[C@@H](OC)[C@@H](O)[C@@H]1O[C@@H]1O[C@H](C)[C@H](OC)[C@H](O[C@@H]2O[C@H](C)[C@H]3O[C@]4(C[C@@H](O)[C@H](O[C@H]5C[C@@H](O[C@H]6C[C@](C)(N)[C@@H](OC)[C@H](C)O6)[C@H](OC(=O)c6c(C)c(Cl)c(O)c(Cl)c6OC)[C@@H](C)O5)[C@@H](C)O4)O[C@]3(C)[C@@H]2O)[C@@]1(C)O
1 µg/mL,2 µg/mL,COC[C@H]1O[C@@H](O[C@@H]2OC[C@@H]3O[C@@]4(OC[C@@H](OC(=O)c5c(C)cc(O)cc5O)[C@@H]5OCO[C@H]54)O[C@H]3[C@H]2O)[C@@H](OC)[C@@H](O)[C@@H]1O[C@@H]1O[C@H](C)[C@H](OC)[C@H](O[C@@H]2O[C@H](C)[C@H]3O[C@]4(C[C@@H](O)[C@H](O[C@H]5C[C@@H](O[C@H]6C[C@](C)(NC(C)=O)[C@@H](OC)[C@H](C)O6)[C@H](OC(=O)c6c(C)c(Cl)c(O)c(Cl)c6OC)[C@@H](C)O5)[C@@H](C)O4)O[C@]3(C)[C@@H]2O)[C@@]1(C)O
2 µg/mL,2 µg/mL,COC[C@H]1O[C@@H](O[C@@H]2OC[C@@H]3O[C@@]4(OC[C@@H](OC(=O)c5c(C)cc(O)cc5O)[C@@H]5OCO[C@H]54)O[C@H]3[C@H]2OCCN=[N+]=[N-])[C@@H](OC)[C@@H](O)[C@@H]1O[C@@H]1O[C@H](C)[C@H](OC)[C@H](O[C@@H]2O[C@H](C)[C@H]3O[C@]4(C[C@@H](O)[C@H](O[C@H]5C[C@@H](O[C@H]6C[C@](C)([N+](=O)[O-])[C@@H](OC)[C@H](C)O6)[C@H](OC(=O)c6c(C)c(Cl)c(O)c(Cl)c6OC)[C@@H](C)O5)[C@@H](C)O4)O[C@]3(C)[C@@H]2O)[C@@]1(C)O
16 µg/mL,8 µg/mL,C=CCOc1cc(C)c(C(=O)O[C@@H]2CO[C@]3(O[C@H]4[C@@H](OCCO)[C@H](O[C@@H]5O[C@H](COC)[C@@H](O[C@@H]6O[C@H](C)[C@H](OC)[C@H](O[C@@H]7O[C@H](C)[C@H]8O[C@]9(C[C@@H](O)[C@H](O[C@H]%10C[C@@H](O[C@H]%11C[C@](C)([N+](=O)[O-])[C@@H](OC)[C@H](C)O%11)[C@H](OC(=O)c%11c(C)c(Cl)c(OCC=C)c(Cl)c%11OC)[C@@H](C)O%10)[C@@H](C)O9)O[C@]8(C)[C@@H]7O)[C@@]6(C)O)[C@H](O)[C@@H]5OC)OC[C@@H]4O3)[C@@H]3OCO[C@H]32)c(OCC=C)c1
2 µg/mL,4 µg/mL,COC[C@H]1O[C@@H](O[C@@H]2OC[C@@H]3O[C@@]4(OC[C@@H](OC(=O)c5c(C)cc(O)cc5O)[C@@H]5OCO[C@H]54)O[C@H]3[C@H]2OCCNC(C)=O)[C@@H](OC)[C@@H](O)[C@@H]1O[C@@H]1O[C@H](C)[C@H](OC)[C@H](O[C@@H]2O[C@H](C)[C@H]3O[C@]4(C[C@@H](O)[C@H](O[C@H]5C[C@@H](O[C@H]6C[C@](C)([N+](=O)[O-])[C@@H](OC)[C@H](C)O6)[C@H](OC(=O)c6c(C)c(Cl)c(O)c(Cl)c6OC)[C@@H](C)O5)[C@@H](C)O4)O[C@]3(C)[C@@H]2O)[C@@]1(C)O

# Second part, the compound before the results:
Structure (SMILES),MIC [1],MIC [2]
COC[C@H]1O[C@@H](O[C@@H]2OC[C@@H]3O[C@@]4(OC[C@@H](OC(=O)c5c(C)cc(O)cc5O)[C@@H]5OCO[C@H]54)O[C@H]3[C@H]2O)[C@@H](OC)[C@@H](O)[C@@H]1O[C@@H]1O[C@H](C)[C@H](OC)[C@H](O[C@@H]2O[C@H](C)[C@H]3O[C@]4(C[C@@H](O)[C@H](O[C@H]5C[C@@H](O[C@H]6C[C@](C)(NC(=O)[C@H](CCSC)NC(=O)OCc7ccccc7)[C@@H](OC)[C@H](C)O6)[C@H](OC(=O)c6c(C)c(Cl)c(O)c(Cl)c6OC)[C@@H](C)O5)[C@@H](C)O4)O[C@]3(C)[C@@H]2O)[C@@]1(C)O,2 µg/mL,2 µg/mL
COC[C@H]1O[C@@H](O[C@@H]2OC[C@@H]3O[C@@]4(OC[C@@H](OC(=O)c5c(C)cc(O)cc5O)[C@@H]5OCO[C@H]54)O[C@H]3[C@H]2O)[C@@H](OC)[C@@H](O)[C@@H]1O[C@@H]1O[C@H](C)[C@H](OC)[C@H](O[C@@H]2O[C@H](C)[C@H]3O[C@]4(C[C@@H](O)[C@H](O[C@H]5C[C@@H](O[C@H]6C[C@](C)([N+](=O)[O-])[C@@H](OC)[C@H](C)O6)[C@H](OC(=O)c6c(C)c(Cl)c(O)c(Cl)c6OC)[C@@H](C)O5)[C@@H](C)O4)O[C@]3(C)[C@@H]2O)[C@H]1O [EVERNIMICIN],2 µg/mL,0.25 µg/mL
COC[C@H]1O[C@@H](O[C@@H]2OC[C@@H]3O[C@@]4(OC[C@@H](OC(=O)c5c(C)cc(O)cc5O)[C@@H]5OCO[C@H]54)O[C@H]3[C@H]2O)[C@@H](OC)[C@@H](O)[C@@H]1O[C@@H]1O[C@H](C)[C@H](OC)[C@H](O[C@@H]2O[C@H](C)[C@H]3O[C@]4(C[C@@H](O)[C@H](O[C@H]5C[C@@H](O[C@H]6C[C@](C)(NC(=O)[C@H](C)N)[C@@H](OC)[C@H](C)O6)[C@H](OC(=O)c6c(C)c(Cl)c(O)c(Cl)c6OC)[C@@H](C)O5)[C@@H](C)O4)O[C@]3(C)[C@@H]2O)[C@@]1(C)O,4 µg/mL,4 µg/mL
COC[C@H]1O[C@@H](O[C@@H]2OC[C@@H]3O[C@@]4(OC[C@@H](OC(=O)c5c(C)cc(O)cc5O)[C@@H]5OCO[C@H]54)O[C@H]3[C@H]2O)[C@@H](OC)[C@@H](O)[C@@H]1O[C@@H]1O[C@H](C)[C@H](OC)[C@H](O[C@@H]2O[C@H](C)[C@H]3O[C@]4(C[C@@H](O)[C@H](O[C@H]5C[C@@H](O[C@H]6C[C@](C)(NC(=O)[C@@H](CCCCNC(=O)OCc7ccccc7)NC(=O)OCc7ccccc7)[C@@H](OC)[C@H](C)O6)[C@H](OC(=O)c6c(C)c(Cl)c(O)c(Cl)c6OC)[C@@H](C)O5)[C@@H](C)O4)O[C@]3(C)[C@@H]2O)[C@@]1(C)O,32 µg/mL,8 µg/mL
COC[C@H]1O[C@@H](O[C@@H]2OC[C@@H]3O[C@@]4(OC[C@@H](OC(=O)c5c(C)cc(O)cc5O)[C@@H]5OCO[C@H]54)O[C@H]3[C@H]2OCC(=O)OC)[C@@H](OC)[C@@H](OCC(=O)OC)[C@@H]1O[C@@H]1O[C@H](C)[C@H](OC)[C@H](O[C@@H]2O[C@H](C)[C@H]3O[C@]4(C[C@@H](O)[C@H](O[C@H]5C[C@@H](O[C@H]6C[C@](C)([N+](=O)[O-])[C@@H](OC)[C@H](C)O6)[C@H](OC(=O)c6c(C)c(Cl)c(O)c(Cl)c6OC)[C@@H](C)O5)[C@@H](C)O4)O[C@]3(C)[C@@H]2OCC(=O)OC)[C@@]1(C)O,32 µg/mL,4 µg/mL
COC[C@H]1O[C@@H](O[C@@H]2OC[C@@H]3O[C@@]4(OC[C@@H](OC(=O)c5c(C)cc(O)cc5O)[C@@H]5OCO[C@H]54)O[C@H]3[C@H]2OC)[C@@H](OC)[C@@H](OC)C1O[C@@H]1O[C@H](C)[C@H](OC)C(O[C@@H]2O[C@H](C)[C@H]3O[C@]4(C[C@@H](OC)[C@H](O[C@H]5C[C@@H](O[C@H]6C[C@](C)([N+](=O)[O-])[C@@H](OC)[C@H](C)O6)[C@H](OC(=O)c6c(C)c(Cl)c(O)c(Cl)c6OC)[C@@H](C)O5)[C@@H](C)O4)O[C@]3(C)[C@@H]2OC)[C@@]1(C)OC (stereo partly specified),16 µg/mL,4 µg/mL

# Reference: ChEMBL document CHEMBL1132390, “Chemical modifications and structure activity studies of ziracin and related everninomicin antibiotics” (1999)
